Where two headings read alike, the source gives them in different places.
Assays:
[1] = target: ER in MCF-7 cells (Homo sapiens (Human), UniProt P03372); assay: In-cell Western (ICW) ER degradation assay in MCF-7 cells; type: cell-based; conditions: for DC50: MCF-7, ER degradation, read-out: MCF7 DC50
[2] = system: MCF-7 cells; assay: CellTiter-Glo (CTG) cell proliferation assay in MCF-7 cells; type: cell-based; conditions: Homo sapiens, MCF7, 144 h, MCF-7 cell proliferation, Day 6
Text: CellTiter-Glo® (CTG) Assays in MCF-7 and T47D Cell Lines.
In vitro Assay: MCF-7 and T47D CTG assay

[3] = MCF7, read-out: MCF7 Dmax, MCF-7, maximal ER degradation, 16 hrs treatment
[4] = MCF7, MCF-7, maximal ER degradation, 16 hrs treatment, read-out: MCF7 Dmax

ER in MCF-7 cells, sequence (P03372 whole entry): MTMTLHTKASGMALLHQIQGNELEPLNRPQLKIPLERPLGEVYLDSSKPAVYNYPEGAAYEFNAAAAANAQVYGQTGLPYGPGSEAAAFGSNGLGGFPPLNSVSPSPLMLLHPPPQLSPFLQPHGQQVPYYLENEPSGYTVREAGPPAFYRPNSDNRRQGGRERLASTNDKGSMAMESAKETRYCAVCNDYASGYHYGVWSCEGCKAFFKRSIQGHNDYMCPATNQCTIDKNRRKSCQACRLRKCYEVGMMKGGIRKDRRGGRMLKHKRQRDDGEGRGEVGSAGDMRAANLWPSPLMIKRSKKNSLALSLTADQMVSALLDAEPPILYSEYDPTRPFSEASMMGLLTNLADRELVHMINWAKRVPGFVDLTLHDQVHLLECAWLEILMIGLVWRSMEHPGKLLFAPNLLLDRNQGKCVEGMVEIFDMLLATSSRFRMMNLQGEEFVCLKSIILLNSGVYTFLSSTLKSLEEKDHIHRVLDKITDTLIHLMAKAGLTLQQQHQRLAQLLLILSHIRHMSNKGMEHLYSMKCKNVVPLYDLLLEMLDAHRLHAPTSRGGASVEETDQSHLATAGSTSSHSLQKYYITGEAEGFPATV

Structure (SMILES) | Dmax [1, 3] | DC50 ([1]; 16 hrs treatment) | IC50 [2] | Dmax [1, 4]
COc1cc2c(c3c1C(=O)N([C@H]1CCC(=O)NC1=O)C3)OCC21CCN(C[C@H]2CCC3(CCN(c4ccc([C@@H]5c6ccc(O)cc6CC[C@@H]5c5ccccc5)cc4)CC3)OC2)CC1 [Compound A235, (S)-3-(1′-(((R)-9-(4-((1R,2S)-6-hydroxy-2-phenyl-1,2,3,4-tetrahydronaphthalen-1-yl)phenyl)-1-oxa-9-azaspiro[5.5]undecan-3-yl)methyl)-5-methoxy-6-oxo-6,8-dihydro-2H,7H-spiro[furo[2,3-e]isoindole-3,4′-piperidin]-7-yl)piperidine-2,6-dione] | > 75% | < 1 nM | < 10 nM | –
COc1cc(N2CC3(CC(CN4CCN5c6ccc7c(c6OC[C@H]5C4)CN([C@H]4CCC(=O)NC4=O)C7=O)C3)C2)c(F)cc1[C@@H]1c2ccc(O)cc2CC[C@@H]1c1ccccc1 [Compound A185, (S)-3-((R)-7-((2-(2-fluoro-4-((1S,2S)-6-hydroxy-2-phenyl-1,2,3,4-tetrahydronaphthalen-1-yl)-5-methoxyphenyl)-2-aza-spiro[3.3]heptan-6-yl)methyl)-1-oxo-1,3,5,5a,6,7,8,9-octa-hydro-2H-pyrazino[1′,2′:4,5] [1,4]oxazino[2,3-e]isoindol-2-yl)piperidine-2,6-dione] | – | < 1 nM | > 100 nM | > 75%
COc1cc(N2CCC3(CC[C@H](CN4CCC5(CC4)COc4c5cc(Cl)c5c4CN([C@H]4CCC(=O)NC4=O)C5=O)CO3)CC2)c(F)cc1[C@@H]1c2ccc(O)cc2CC[C@@H]1c1ccccc1 [Compound A232, (S)-3-(5-chloro-1′-(((R)-9-(2-fluoro-4-((1S,2S)-6-hydroxy-2-phenyl-1,2,3,4-tetrahydronaphthalen-1-yl)-5-methoxyphenyl)-1-oxa-9-azaspiro[5.5]undecan-3-yl)methyl)-6-oxo-6,8-dihydro-2H,7H-spiro[furo[2,3-e]isoindole-3,4′-piperidin]-7-yl)piperidine-2,6-dione] | > 75% | < 1 nM | < 10 nM | –
O=C1CC[C@H](N2Cc3c(ccc4c3OCC43CCN(CC4CC5(CCN(c6ccc([C@@H]7c8ccc(O)cc8CC[C@@H]7c7ccccc7)cc6)CC5)C4)CC3)C2=O)C(=O)N1 [Compound A181, (S)-3-(1′-((7-(4-((1R,2S)-6-hydroxy-2-phenyl-1,2,3,4-tetra-hydronaphthalen-1-yl)phenyl)-7-azaspiro[3.5]nonan-2-yl)-methyl)-6-oxo-6,8-dihydro-2H, 7H-spiro[furo[2,3-e]isoindole-3,4′-piperidin]-7-yl)piperidine-2,6-dione] | > 75% | < 1 nM | > 100 nM | –
COC1(CCN2CCC3(CC2)COc2c3ccc3c2CN([C@H]2CCC(=O)NC2=O)C3=O)CCN(c2ccc([C@@H]3c4ccc(O)cc4CC[C@@H]3c3ccccc3)cc2)CC1 [Compound A193, (S)-3-(1′-(2-(1-(4-((1R,2S)-6-hydroxy-2-phenyl-1,2,3,4-tetra-hydronaphthalen-1-yl)phenyl)-4-methoxypiperidin-4-yl)-ethyl)-6-oxo-6,8-dihydro-2H, 7H-spiro[furo[2,3-e]isoindole-3,4′-piperidin]-7-yl)piperidine-2,6-dione] | > 75% | < 1 nM | 10 to 100 nM | –
COc1cc2c(c3c1C(=O)N([C@H]1CCC(=O)NC1=O)C3)OCC21CCN(C[C@@H]2CCC3(CCN(c4ccc([C@@H]5c6ccc(O)cc6CC[C@@H]5c5ccccc5)cc4)CC3)OC2)CC1 [Compound A236, (S)-3-(1′-(((S)-9-(4-((1R,2S)-6-hydroxy-2-phenyl-1,2,3,4-tetrahydronaphthalen-1-yl)phenyl)-1-oxa-9-azaspiro[5.5]undecan-3-yl)methyl)-5-methoxy-6-oxo-6,8-dihydro-2H,7H-spiro[furo[2,3-e]isoindole-3,4′-piperidin]-7-yl)piperidine-2,6-dione] | > 75% | < 1 nM | 10 to 100 nM | –
COc1c([C@@H]2c3ccc(O)cc3CC[C@@H]2c2ccccc2)ccc(N2CCC3(CC2)CC(CN2CCN4c5ccc6c(c5OC[C@H]4C2)CN([C@H]2CCC(=O)NC2=O)C6=O)C3)c1F [Compound A196, (S)-3-((R)-7-((7-(2-fluoro-4-((1S,2S)-6-hydroxy-2-phenyl-1,2,3,4-tetrahydronaphthalen-1-yl)-3-methoxyphenyl)-7-aza-spiro[3.5]nonan-2-yl)methyl)-1-oxo-1,3,5,5a,6,7,8,9-octa-hydro-2H-pyrazino[1′,2′:4,5] [1,4]oxazino[2,3-e]isoindol-2-yl)piperidine-2,6-dione] | – | < 1 nM | < 10 nM | > 75%
O=C1CC[C@H](N2Cc3cc4c(cc3C2=O)OCC42CCN(CC3CC4(CCN(c5cnc(C6c7ccc(O)cc7CCC6c6ccccc6)cn5)CC4)C3)CC2)C(=O)N1 (stereo partly drawn) [Compound A202, (3S)-3-(1′-((7-(5-(6-hydroxy-2-phenyl-1,2,3,4-tetrahydronaph-thalen-1-yl)pyrazin-2-yl)-7-azaspiro[3.5]nonan-2-yl)meth-yl)-7-oxo-5,7-dihydro-2H,6H-spiro[furo[2,3-f]isoindole-3,4′-piperidin]-6-yl)piperidine-2,6-dione] | 50 to 75% | < 1 nM | > 100 nM | –
COc1cc(N2CCC(CCN3CCC4(CC3)COc3cc5c(cc34)CN([C@H]3CCC(=O)NC3=O)C5=O)CC2)c(F)cc1[C@@H]1c2ccc(O)cc2CC[C@@H]1c1ccccc1 [Compound A189, (S)-3-(1′-(2-(1-(2-fluoro-4-((1S,2S)-6-hydroxy-2-phenyl-1,2,3,4-tetrahydronaphthalen-1-yl)-5-methoxyphenyl)piper-idin-4-yl)ethyl)-7-oxo-5,7-dihydro-2H,6H-spiro[furo[2,3-f]isoindole-3,4′-piperidin]-6-yl)piperidine-2,6-dione] | > 75% | < 1 nM | 10 to 100 nM | –
COc1cc(N2CC3(CC(CN4CCC5(CC4)COc4c5ccc5c4CN([C@H]4CCC(=O)NC4=O)C5=O)C3)C2)c(F)cc1[C@@H]1c2ccc(O)cc2CC[C@@H]1c1ccccc1 [Compound A184, (S)-3-(1′-((2-(2-fluoro-4-((1S, 2S)-6-hydroxy-2-phenyl-1,2,3,4-tetrahydronaphthalen-1-yl)-5-methoxyphenyl)-2-aza-spiro[3.3]heptan-6-yl)methyl)-6-oxo-6,8-dihydro-2H,7H-spiro[furo[2,3-e]isoindole-3,4′-piperidin]-7-yl)piperidine-2,6-dione] | 50 to 75% | – | > 100 nM | –
COc1cc(N2CCC(CCN3CCC4(CC3)COc3c4ccc4c3CN([C@H]3CCC(=O)NC3=O)C4=O)CC2)c(F)cc1[C@@H]1c2ccc(O)cc2CC[C@@H]1c1ccccc1 [Compound A187, (S)-3-(1′-(2-(1-(2-fluoro-4-((1S,2S)-6-hydroxy-2-phenyl-1,2,3,4-tetrahydronaphthalen-1-yl)-5-methoxyphenyl)piperidin-4-yl)ethyl)-6-oxo-6,8-dihydro-2H,7H-spiro[furo[2,3-e]iso-indole-3,4′-piperidin]-7-yl)-piperidine-2,6-dione] | > 75% | < 1 nM | 10 to 100 nM | –
O=C1CC[C@H](N2Cc3cc4c(cc3C2=O)OCC42CCN(CC3CCC4(CC3)CN(c3ccc([C@@H]5c6ccc(O)cc6CC[C@@H]5c5ccccc5)cc3)C4)CC2)C(=O)N1 [Compound A178, (S)-3-(1′-((2-(4-((1R,2S)-6-hydroxy-2-phenyl-1,2,3,4-tetra-hydronaphthalen-1-yl)phenyl)-2-azaspiro[3.5]nonan-7-yl)-methyl)-7-oxo-5,7-dihydro-2H, 6H-spiro[furo[2,3-f]isoindole-3,4′-piperidin]-6-yl)piperidine-2,6-dione] | > 75% | < 1 nM | > 100 nM | –
COc1cc(N2CCC(CCN3CCN4c5ccc6c(c5OC[C@H]4C3)CN([C@H]3CCC(=O)NC3=O)C6=O)CC2)c(F)cc1[C@@H]1c2ccc(O)cc2CC[C@@H]1c1ccccc1 [Compound A180, (S)-3-((R)-7-(2-(1-(2-fluoro-4-((1S,2S)-6-hydroxy-2-phenyl-1,2,3,4-tetrahydronaphthalen-1-yl)-5-methoxyphenyl)piper-idin-4-yl)ethyl)-1-oxo-1,3,5,5a, 6,7,8,9-octahydro-2H-pyrazino [1′,2′:4,5][1,4]oxazino[2,3-e]isoindol-2-yl)piperidine-2,6-dione] | – | < 1 nM | > 100 nM | > 75%
COc1c([C@@H]2c3ccc(O)cc3CC[C@@H]2c2ccccc2)ccc(N2CCC(CN3CCC4(CC3)COc3cc5c(cc34)CN([C@H]3CCC(=O)NC3=O)C5=O)CC2)c1F [Compound A191, (S)-3-(1′-((1-(2-fluoro-4-((1S, 2S)-6-hydroxy-2-phenyl-1,2,3,4-tetrahydronaphthalen-1-yl)-3-methoxyphenyl)piper-idin-4-yl)methyl)-7-oxo-5,7-dihydro-2H,6H-spiro[furo[2,3-f]isoindole-3,4′-piperidin]-6-yl)piperidine-2,6-dione] | 50 to 75% | < 1 nM | 10 to 100 nM | –
COc1cc(N2CCC3(CC[C@@H](CN4CCC5(CC4)COc4c5cc(C)c5c4CN([C@H]4CCC(=O)NC4=O)C5=O)CO3)CC2)c(F)cc1[C@@H]1c2ccc(O)cc2CC[C@@H]1c1ccccc1 [Compound A227, (S)-3-(1′-(((S)-9-(2-fluoro-4-((1S,2S)-6-hydroxy-2-phenyl-1,2,3,4-tetrahydronaphthalen-1-yl)-5-methoxyphenyl)-1-oxa-9-azaspiro[5.5]undecan-3-yl)methyl)-5-methyl-6-oxo-6,8-dihydro-2H,7H-spiro[furo[2,3-e]isoindole-3,4′-piperidin]-7-yl)piperidine-2,6-dione] | > 75% | < 1 nM | < 10 nM | –
